Data taken from ChEMBL document CHEMBL1201862, “PubChem BioAssay data set” (2004).
Calls of active or inactive are those of the source.

Tests used:
Ephrin type-A receptor 4 = Ephrin type-A receptor 4 (Mus musculus, UniProt Q03137); test: EphA4 ligand-binding antagonists – biochemical, colorimetric, mouse EphA4, primary screen (AID 689); format: functional
[1] = target: T1, High affinity choline transporter 1 (Homo sapiens, UniProt Q9GZV3); test: human choline transporter blockers, potency – cell-based, 5-point CRC, membrane potential dye, dose response (AID 504840); format: functional
T1 sequence (Q9GZV3 whole entry): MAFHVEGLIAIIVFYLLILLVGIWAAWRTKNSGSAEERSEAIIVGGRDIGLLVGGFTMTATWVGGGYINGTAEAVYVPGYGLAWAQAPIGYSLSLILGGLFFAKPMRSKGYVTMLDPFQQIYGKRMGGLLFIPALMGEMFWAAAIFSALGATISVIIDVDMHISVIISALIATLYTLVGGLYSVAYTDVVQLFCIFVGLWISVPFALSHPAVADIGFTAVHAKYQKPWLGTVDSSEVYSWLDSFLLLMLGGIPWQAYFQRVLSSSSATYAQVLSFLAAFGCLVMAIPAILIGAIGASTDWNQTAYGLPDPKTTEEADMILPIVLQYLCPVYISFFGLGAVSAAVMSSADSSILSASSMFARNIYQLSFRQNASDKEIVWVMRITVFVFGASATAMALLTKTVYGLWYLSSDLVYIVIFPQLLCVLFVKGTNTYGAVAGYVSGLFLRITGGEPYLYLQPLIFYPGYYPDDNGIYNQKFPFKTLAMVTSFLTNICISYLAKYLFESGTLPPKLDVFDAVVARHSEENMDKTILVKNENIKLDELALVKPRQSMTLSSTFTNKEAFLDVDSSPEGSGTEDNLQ

[2] = M. tuberculosis growth inhibition, HTS (AID 449762); format: functional
[3] = Trypanosoma cruzi growth suppression in host cells – NIH3T3 host cells, beta-gal luminescence, confirmation (AID 2044); format: functional, cell-based;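 further: intracellular parasites grown in NIH/3T3 mouse fibroblasts as host cells; luminescent beta-galactosidase reporter signal from transgenic T. cruzi replicating inside host cells; inhibitors lower the luminescence signal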
[4] = NIH3T3 cell viability loss – ATP luminescence, mouse fibroblasts, counter-screen, dose response (AID 2010); format: functional, cell-based;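 further: cells exposed to compound for about 90 hours before reading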
[5] = target: T2, Mannose-6-phosphate isomerase (Homo sapiens, UniProt P34949); test: MPI inhibition at elevated mannose 6-phosphate – biochemical, fluorescence intensity, high mannose 6-phosphate, primary screen (AID 1220)
T2 sequence (P34949 whole entry): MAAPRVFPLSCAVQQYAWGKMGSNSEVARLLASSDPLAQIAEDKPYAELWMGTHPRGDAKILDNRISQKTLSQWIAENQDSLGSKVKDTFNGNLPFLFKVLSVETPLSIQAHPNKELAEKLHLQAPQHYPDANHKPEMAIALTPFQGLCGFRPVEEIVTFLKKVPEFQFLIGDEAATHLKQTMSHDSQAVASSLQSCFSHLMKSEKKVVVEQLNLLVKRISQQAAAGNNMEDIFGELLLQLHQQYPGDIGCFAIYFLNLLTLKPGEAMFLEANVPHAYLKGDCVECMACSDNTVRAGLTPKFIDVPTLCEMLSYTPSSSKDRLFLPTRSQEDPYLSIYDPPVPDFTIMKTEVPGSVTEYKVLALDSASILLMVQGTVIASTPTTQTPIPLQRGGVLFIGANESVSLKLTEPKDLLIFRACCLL

[6] = target: T3, Replicative DNA helicase DnaB (Mycobacterium tuberculosis, UniProt P9WMR3); test: DnaB intein splicing inhibitors, dose response, biochemical, cell-free fluorescence (AID 449749); format: functional
T3 sequence (P9WMR3 whole entry): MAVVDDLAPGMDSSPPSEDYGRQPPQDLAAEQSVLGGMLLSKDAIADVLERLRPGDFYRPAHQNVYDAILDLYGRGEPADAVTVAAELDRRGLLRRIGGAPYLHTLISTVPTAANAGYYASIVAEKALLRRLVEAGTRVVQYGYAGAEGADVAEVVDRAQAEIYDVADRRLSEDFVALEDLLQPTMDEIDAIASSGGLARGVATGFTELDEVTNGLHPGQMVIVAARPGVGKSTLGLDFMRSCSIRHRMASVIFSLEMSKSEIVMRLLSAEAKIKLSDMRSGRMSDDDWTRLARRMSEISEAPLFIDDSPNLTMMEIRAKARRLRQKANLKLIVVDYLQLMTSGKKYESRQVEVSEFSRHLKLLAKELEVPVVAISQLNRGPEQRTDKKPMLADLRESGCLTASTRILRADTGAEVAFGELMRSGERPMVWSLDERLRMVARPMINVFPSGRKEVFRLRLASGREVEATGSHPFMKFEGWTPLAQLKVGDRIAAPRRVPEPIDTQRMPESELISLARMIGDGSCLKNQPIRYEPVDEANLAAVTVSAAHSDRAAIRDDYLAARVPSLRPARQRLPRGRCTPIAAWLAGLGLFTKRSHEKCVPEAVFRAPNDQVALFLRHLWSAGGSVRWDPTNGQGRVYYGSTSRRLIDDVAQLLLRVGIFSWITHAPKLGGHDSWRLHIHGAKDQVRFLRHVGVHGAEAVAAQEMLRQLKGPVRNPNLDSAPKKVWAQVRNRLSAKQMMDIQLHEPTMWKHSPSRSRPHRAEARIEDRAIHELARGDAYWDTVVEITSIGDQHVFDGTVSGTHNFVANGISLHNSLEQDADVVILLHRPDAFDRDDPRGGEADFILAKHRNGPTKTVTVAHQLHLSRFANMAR

Protein RecA = target: T4, Protein RecA (Mycobacterium tuberculosis, UniProt P9WHJ3); test: Fluorescence Cell-Free Homogeneous Dose Retest to Identify Inhibitors of RecA-Intein Splicing Activity. [Related pubchem assays (depositor defined):AID2097, AID2223, AID489010, AID492950]; format: functional
T4 sequence (P9WHJ3 whole entry): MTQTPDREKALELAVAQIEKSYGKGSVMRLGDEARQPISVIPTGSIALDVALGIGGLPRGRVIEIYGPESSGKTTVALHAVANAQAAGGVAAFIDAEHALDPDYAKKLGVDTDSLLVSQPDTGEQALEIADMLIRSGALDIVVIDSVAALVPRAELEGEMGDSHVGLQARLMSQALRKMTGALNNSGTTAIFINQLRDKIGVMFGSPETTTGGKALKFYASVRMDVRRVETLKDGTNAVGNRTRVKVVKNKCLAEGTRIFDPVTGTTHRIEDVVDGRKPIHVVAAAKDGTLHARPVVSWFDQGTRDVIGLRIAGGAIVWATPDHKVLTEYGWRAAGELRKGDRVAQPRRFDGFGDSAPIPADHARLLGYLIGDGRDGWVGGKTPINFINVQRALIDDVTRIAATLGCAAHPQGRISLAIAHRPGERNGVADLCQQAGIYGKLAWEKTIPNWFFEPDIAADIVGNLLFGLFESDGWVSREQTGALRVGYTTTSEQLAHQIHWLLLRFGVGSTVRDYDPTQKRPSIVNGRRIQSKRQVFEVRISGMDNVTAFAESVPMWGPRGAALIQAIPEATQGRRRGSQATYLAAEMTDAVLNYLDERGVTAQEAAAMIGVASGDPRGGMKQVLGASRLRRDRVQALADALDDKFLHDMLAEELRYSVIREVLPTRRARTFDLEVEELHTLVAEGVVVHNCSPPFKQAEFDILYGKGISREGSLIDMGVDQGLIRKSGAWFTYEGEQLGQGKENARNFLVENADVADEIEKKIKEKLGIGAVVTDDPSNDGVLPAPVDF

[7] = viability of uninfected HEp-2 cells – cell-based, HTS, cytotoxicity control for RSV inhibitor project, dose response (AID 2410); format: functional; settings: human respiratory syncytial virus
Vero [8] = test: mammalian cell viability reduction – secondary assay, cytotoxicity control for West Nile virus antiviral project, dose response (AID 1650); format: functional; settings: Chlorocebus sabaeus
Vero [9] = test: inhibition of WNV-induced cytopathic effect – cell-based, CPE readout (AID 1621); format: functional; settings: Chlorocebus sabaeus
Vero [10] = test: cells; format: functional, cell-based; settings: Chlorocebus sabaeus
[11] = target: T5, Tyrosine-protein phosphatase non-receptor type 7 (Homo sapiens, UniProt P35236); test: HePTP tyrosine phosphatase activity blockers – biochemical, absorbance, leukemia target, primary screen (AID 521); format: functional
T5 sequence (P35236 whole entry): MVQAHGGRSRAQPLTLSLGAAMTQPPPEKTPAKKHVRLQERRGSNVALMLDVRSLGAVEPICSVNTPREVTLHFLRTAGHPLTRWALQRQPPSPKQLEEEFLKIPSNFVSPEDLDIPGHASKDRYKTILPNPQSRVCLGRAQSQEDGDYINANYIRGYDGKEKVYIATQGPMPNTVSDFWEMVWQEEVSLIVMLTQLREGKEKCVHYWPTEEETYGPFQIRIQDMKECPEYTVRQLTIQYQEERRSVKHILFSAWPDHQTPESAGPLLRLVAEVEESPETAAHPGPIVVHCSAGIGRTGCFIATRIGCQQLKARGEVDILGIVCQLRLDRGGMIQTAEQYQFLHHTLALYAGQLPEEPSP

Cytochrome P450 1A2 = target: T6, Cytochrome P450 1A2 (Homo sapiens, UniProt P05177);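 further: PubChem cytochrome P450 panel assay, CYP1A2 panel member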
T6 sequence (P05177 whole entry): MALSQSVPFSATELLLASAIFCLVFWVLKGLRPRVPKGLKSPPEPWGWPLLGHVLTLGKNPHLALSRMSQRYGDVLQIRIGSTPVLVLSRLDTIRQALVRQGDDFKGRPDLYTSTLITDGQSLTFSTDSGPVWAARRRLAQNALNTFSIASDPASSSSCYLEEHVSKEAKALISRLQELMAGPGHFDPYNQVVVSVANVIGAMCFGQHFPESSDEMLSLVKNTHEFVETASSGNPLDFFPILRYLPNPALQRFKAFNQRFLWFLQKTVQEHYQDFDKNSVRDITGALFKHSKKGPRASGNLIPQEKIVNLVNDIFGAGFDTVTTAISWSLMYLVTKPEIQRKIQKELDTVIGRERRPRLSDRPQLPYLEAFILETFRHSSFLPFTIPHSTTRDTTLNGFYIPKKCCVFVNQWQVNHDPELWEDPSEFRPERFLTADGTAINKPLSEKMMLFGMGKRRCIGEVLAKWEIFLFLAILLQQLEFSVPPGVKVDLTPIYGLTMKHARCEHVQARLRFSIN

[12] = target: G-protein coupled receptor 35 (Homo sapiens, UniProt Q9HC97); test: SAR Analysis for the identification of Selective Antagonists of ERK1/2 Activity in GPR35-Overexpressing U2OS Cells. [Related pubchem assays: 2079, 2058 ]; format: functional, cell-based
[13] = target: G-protein coupled receptor 55 (Homo sapiens, UniProt Q9Y2T6); test: blockers of GPR55 signalling, imaged – imaging, image-based, counter-screen for GPR35 antagonist project, SAR follow-up (AID 2397); format: functional
[14] = HEK-293T cell viability reduction – luminescence, B-cell screen hits, cytotoxicity control for BCR NF-kB inhibitor project, dose response (AID 489021); format: functional, cell-based;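 further: HEK-293T cells carrying an NF-kB luciferase reporter; cells exposed to compound for about 14 hours before viability readout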
[15] = Luminescent dose response cell-based high throughput screening assay for inhibitors of the Janus kinase 2 mutant JAK2V617F. [Related pubchem assays: 1446 (Primary screen.), 1521 (Confirmation assay.), 1486 (Counter screen.)]; format: functional
[16] = Luminescence Cell-Based Dose Retest to Confirm Inhibitors of Cancer Stem Cells. [Related pubchem assays (depositor defined):AID2717, AID2721]; format: functional; settings: Homo sapiens
[17] = target: DNA repair and recombination protein RAD54-like (Homo sapiens, UniProt Q92698); test: RAD54 Holliday junction migration blockers – biochemical, fluorescence, cherry-picked samples, dose series, confirmation (AID 651657); format: functional
[18] = target: Luciferin 4-monooxygenase (Photinus pyralis, UniProt P08659); test: inhibition of purified Photinus pyralis luciferase – biochemical, luminescence, dose response (AID 1891)
[19] = Luminescence Cell-Based Dose Confirmation HTS to Identify Inhibitors of Platelet Dense Granule Release. [Related pubchem assays: 1663 (Primary HTS), 1678 (Summary of Project)]; format: functional
[20] = Fluorescence Cell-Based Dose Response to Identify Inhibitors of Thrombin Receptor-Activating Peptide SFLLRN-Mediated P-Selectin Induction on Platelets. [Related pubchem assays: 1663 (Primary HTS), 1889 (retest at dose ), 1891 (counterscreen), 1678 (Project Summary)]; format: functional
[21] = target: Diphosphomevalonate decarboxylase (Streptococcus pneumoniae serotype 2 (strain D39 / NCTC 7466), UniProt Q9FD53); test: diphosphomevalonate decarboxylase inhibitor confirmation – biochemical, cuvette format, coupled NADH fluorescence (AID 1028); format: functional
Chain of Diphosphomevalonate decarboxylase (Q9FD53 whole entry): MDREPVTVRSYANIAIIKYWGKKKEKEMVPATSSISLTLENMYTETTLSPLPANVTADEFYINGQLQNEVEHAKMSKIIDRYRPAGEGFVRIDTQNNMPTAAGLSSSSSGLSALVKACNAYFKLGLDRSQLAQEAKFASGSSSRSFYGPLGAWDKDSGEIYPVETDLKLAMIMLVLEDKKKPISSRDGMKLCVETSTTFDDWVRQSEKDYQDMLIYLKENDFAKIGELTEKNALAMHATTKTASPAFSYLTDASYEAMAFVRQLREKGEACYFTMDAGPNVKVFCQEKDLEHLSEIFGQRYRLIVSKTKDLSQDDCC

Chain of Luciferin 4-monooxygenase (P08659 whole entry): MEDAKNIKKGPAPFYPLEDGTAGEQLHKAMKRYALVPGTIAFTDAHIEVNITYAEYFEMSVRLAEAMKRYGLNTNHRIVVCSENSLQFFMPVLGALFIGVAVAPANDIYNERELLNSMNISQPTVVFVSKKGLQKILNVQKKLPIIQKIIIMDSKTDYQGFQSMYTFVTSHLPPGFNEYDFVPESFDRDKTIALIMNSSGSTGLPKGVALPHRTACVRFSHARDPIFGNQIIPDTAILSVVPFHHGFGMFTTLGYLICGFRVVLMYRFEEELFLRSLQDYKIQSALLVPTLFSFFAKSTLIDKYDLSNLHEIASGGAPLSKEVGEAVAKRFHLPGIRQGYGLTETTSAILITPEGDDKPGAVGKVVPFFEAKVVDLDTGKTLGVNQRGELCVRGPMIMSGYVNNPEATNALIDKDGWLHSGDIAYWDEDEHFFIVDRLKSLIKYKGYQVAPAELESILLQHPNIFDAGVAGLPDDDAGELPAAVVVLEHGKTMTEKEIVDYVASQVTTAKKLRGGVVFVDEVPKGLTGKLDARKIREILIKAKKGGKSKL
Chain of DNA repair and recombination protein RAD54-like (Q92698 whole entry): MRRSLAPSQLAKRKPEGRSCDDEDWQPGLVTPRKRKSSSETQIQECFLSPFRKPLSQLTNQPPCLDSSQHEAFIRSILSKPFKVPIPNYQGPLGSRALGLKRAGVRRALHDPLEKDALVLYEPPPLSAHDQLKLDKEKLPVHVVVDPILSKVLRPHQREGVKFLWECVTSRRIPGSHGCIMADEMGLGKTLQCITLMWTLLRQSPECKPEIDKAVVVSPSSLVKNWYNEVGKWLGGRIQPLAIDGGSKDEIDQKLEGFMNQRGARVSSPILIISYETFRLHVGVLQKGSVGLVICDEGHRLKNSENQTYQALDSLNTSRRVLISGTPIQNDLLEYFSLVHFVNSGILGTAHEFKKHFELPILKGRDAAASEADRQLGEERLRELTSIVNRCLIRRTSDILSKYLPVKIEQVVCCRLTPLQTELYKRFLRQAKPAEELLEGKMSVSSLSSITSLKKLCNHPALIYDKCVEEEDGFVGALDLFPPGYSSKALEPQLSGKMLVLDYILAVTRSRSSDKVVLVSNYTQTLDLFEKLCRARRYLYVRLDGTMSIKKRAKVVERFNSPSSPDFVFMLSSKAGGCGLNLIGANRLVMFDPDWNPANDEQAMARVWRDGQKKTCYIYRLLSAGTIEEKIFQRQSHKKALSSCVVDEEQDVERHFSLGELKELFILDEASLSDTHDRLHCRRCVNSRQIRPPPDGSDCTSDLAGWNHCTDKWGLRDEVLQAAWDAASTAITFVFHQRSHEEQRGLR
Chain of G-protein coupled receptor 55 (Q9Y2T6 whole entry): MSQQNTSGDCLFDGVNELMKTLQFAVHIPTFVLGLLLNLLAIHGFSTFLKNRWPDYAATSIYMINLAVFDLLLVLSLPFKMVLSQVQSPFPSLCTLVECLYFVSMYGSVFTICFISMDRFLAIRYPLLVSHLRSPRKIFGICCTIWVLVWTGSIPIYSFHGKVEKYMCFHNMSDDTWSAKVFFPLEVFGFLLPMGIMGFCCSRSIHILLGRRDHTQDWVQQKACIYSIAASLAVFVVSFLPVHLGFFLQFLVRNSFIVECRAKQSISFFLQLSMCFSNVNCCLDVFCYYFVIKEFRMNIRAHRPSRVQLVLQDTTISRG
Chain of G-protein coupled receptor 35 (Q9HC97 whole entry): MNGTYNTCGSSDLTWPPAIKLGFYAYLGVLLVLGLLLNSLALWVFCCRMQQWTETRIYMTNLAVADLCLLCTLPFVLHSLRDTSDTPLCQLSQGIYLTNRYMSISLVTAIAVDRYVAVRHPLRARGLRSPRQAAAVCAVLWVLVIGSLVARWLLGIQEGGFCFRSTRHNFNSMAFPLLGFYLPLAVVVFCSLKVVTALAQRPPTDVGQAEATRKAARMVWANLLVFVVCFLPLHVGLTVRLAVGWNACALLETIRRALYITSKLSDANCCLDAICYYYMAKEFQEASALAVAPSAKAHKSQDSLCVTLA
Chain of Ephrin type-A receptor 4 (Q03137 whole entry): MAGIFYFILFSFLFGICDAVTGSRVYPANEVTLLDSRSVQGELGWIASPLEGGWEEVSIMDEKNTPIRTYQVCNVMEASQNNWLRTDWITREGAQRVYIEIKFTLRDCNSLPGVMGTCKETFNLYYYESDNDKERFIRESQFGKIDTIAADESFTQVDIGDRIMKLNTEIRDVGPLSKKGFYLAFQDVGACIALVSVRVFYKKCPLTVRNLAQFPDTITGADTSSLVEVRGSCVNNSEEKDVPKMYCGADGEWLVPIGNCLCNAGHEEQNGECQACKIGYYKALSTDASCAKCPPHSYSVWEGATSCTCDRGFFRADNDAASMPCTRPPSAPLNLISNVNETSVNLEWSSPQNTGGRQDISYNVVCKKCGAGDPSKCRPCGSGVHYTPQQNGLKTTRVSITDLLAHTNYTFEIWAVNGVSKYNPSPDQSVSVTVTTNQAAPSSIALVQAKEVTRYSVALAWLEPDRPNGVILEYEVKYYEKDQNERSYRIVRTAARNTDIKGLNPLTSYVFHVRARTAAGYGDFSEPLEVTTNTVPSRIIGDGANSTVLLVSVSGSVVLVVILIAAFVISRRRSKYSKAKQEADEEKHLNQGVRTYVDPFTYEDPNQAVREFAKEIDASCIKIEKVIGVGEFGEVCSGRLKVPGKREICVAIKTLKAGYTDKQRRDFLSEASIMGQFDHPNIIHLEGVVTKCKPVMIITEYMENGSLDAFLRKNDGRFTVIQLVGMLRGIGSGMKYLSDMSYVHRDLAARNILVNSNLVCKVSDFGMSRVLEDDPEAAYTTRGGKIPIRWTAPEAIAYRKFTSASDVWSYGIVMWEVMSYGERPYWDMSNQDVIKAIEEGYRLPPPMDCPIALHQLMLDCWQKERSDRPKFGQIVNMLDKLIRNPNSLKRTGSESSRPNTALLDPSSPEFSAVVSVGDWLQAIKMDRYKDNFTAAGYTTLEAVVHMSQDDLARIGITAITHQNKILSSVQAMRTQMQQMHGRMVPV

Structure (SMILES): CCn1c(SCc2nc(-c3ccccc3)no2)nnc1-c1cccs1
- IC50 (Ephrin type-A receptor 4): > 100 µM (not active)
- IC50 [1]: 15.1 µM (active)

Structure (SMILES): Cc1cccc(CSc2nc3c(c(-c4cccs4)c2C#N)CN(C)CC3)c1
- IC50 [2]: > 100 µM (active)
- EC50 [3]: 0.101 µM (active)
- EC50 [4]: > 60 µM (not active)
- IC50 [5]: > 50 µM (not active)
- AC50 [6]: 16.5 µM (active)
- EC50 (Protein RecA): 0.503 µM (active)

Structure (SMILES): COC(=O)c1c(-c2ccccc2)csc1NC(=O)c1c(-c2ccccc2)noc1C
- CC50 [7]: 6.35 µM (active)
- CC50 (Vero [8]): 10.1 µM (active)
- IC50 (Vero [9]): 41.3 µM (active)
- IC50 (Vero [10]): 0.8 µM (active)
- IC50 (cells): 3.07 µM (active)

Structure (SMILES): Cc1c(NC(=O)CN2C(=O)C3C4C=CC(C4)C3C2=O)c(=O)n(-c2ccccc2)n1C (stereo not given)
- IC50 [11]: > 100 µM (not active)
- AC50 (Cytochrome P450 1A2): 39.8 µM (inconclusive)

Structure (SMILES): COc1ccc(/C=C2\SC(=S)N(CCCC(=O)Nc3ccc(O)cc3)C2=O)cc1
- IC50 [12]: > 32 µM (not active)
- IC50 [13]: > 32 µM (inactive)
- IC50 [14]: > 80 µM (inactive)
- AC50 [6]: > 380 µM (inactive)
- EC50 (Protein RecA): 78.1 µM (active)

Structure (SMILES): CC1CCCN(CCCNC(=O)c2cc3c(Cl)nc4ccccc4c3s2)C1 (stereo not given)
- IC50 [15]: 0.934 µM (active)
- EC50 [3]: 1.4 µM (active)
- EC50 [4]: 6.28 µM (active)
- AC50 [16]: 8.01 µM (active)
- AC50 [17]: 9.98 µM (active)

Structure (SMILES): COC(=O)C(C)Sc1nc2c(c(=O)[nH]c(=O)n2C)n1CCCc1ccccc1 (stereo not given)
- EC50 [18]: > 112 µM (not active)
- EC50 [19]: 6.52 µM (active)
- EC50 [20]: < 30 µM (active)
- IC50 [1]: 12.6 µM (active)

Structure (SMILES): O=C(NCc1ccco1)c1ccc(-n2sc3ccccc3c2=O)cc1
- IC50 [21]: 4.68 µM (active)
